Laboratory results reported in patent USRE38460E1 (priority 1994, dated 2004).
Read-outs that look alike come from different tables or passages of the source.

Experiments:
[1] = target: T1, BuChE (Rattus norvegicus, UniProt Q9JKC1); test: In-vitro anticholinesterase effect (Table 6), BuChE; assay type: biochemical; conditions: for inhibition at 10 µM: read-out: inhibition activity BuChE at 10(μM); for inhibition activity BuChE at 10(μM): Table 6
T1 construct: from tissue; host or cells: rat serum
T1 sequence (Q9JKC1 24-597): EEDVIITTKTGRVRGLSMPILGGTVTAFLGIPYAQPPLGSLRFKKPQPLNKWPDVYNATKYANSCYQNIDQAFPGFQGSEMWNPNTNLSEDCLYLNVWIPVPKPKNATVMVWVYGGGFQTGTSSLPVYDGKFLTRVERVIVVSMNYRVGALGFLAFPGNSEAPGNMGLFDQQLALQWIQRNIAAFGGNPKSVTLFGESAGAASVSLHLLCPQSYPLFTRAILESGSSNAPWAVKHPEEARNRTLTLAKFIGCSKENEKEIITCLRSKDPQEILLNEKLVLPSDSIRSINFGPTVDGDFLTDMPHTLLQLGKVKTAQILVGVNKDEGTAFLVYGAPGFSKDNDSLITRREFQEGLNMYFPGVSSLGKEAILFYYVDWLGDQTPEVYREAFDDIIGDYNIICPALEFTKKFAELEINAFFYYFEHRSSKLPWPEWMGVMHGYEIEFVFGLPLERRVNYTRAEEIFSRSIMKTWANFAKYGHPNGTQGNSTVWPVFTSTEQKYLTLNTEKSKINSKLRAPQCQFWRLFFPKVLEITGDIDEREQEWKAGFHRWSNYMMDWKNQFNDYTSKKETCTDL
Protocol: (§1) In the present invention a calorimetric method reported by Ellman was used to determine the effect of inhibition of the pharmaceutical on enzyme activity. The total volume of the solution of the enzyme activity reaction was 4 ml, which contained 0.3 mmol/L of acetylcholin iodide (acetylcholinesterase substrate), or 0.4 mmol/L of butyrylcholin iodide (butyrylcholinesterase substrate), 1 ml of the buffer solution of 25 mmol/L of phosphate of pH 7.4, and water to make up to 4 ml (including the amount of the enzyme solution and the testing reagent added afterwards). After the solution was kept at 37° C. for 5 minutes, 0.1-0.2 ml of enzyme solution (red cell membrane or serum of rat) was added, or 0.1-0.3 ml of the testing reagent was added at the same time. The solution was kept at the same temperature for another 8 minutes. Then 1 ml of 3% of sodium lauryl sulphate was added to terminate the reaction. Finally 1 ml of 0.2% 5,5-dithio-2,2′-nitro-benzoic acid solution was added for developing.

[2] = target: T2, butyrylcholinesterase (BuChE) (Rattus norvegicus, UniProt Q9JKC1); test: In-vitro anticholinesterase effect, colorimetric method (Ellman), BuChE from rat's serum; assay type: biochemical
T2 construct: from tissue; host or cells: rat serum
T2 sequence (Q9JKC1 24-597): as above
Protocol: as §1
(§2) AChE taken from rat's red cell membrane. BuChE taken from rat's serum.
(§3) AChE taken from homogenate of rat's cortex. BuChE taken from rat's serum.

[3] = target: T3, acetylcholinesterase (AChE) (Rattus norvegicus, UniProt P37136); test: biochemical; assay type: biochemical; conditions: for IC50 ratio BuChE/AChE: cortex AChE, serum BuChE
T3 construct: from tissue; host or cells: homogenate of rat cortex
T3 sequence (P37136 32-614): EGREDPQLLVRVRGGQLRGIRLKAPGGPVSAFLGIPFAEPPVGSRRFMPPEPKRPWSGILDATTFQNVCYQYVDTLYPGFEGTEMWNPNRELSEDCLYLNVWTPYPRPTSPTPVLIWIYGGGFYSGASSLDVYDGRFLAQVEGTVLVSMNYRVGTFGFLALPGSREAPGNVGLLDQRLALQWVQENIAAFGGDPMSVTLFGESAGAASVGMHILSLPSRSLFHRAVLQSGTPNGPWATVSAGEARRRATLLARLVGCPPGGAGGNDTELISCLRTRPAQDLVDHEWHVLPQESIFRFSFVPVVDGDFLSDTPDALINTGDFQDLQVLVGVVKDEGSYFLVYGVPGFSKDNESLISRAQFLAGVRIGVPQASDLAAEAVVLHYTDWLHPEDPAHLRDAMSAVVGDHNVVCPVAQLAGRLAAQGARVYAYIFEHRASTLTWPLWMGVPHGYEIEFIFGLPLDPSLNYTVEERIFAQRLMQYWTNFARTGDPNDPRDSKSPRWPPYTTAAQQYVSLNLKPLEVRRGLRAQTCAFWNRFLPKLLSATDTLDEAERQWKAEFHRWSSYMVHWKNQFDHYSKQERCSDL
Protocol: as §1, §3

[4] = target: T4, acetylcholinesterase (AChE) (Rattus norvegicus, UniProt P37136); test: biochemical; assay type: biochemical
T4 construct: from tissue; host or cells: rat red cell membrane
Protocol: as §1, §2
T4 sequence (P37136 other isoform, or with tags, fused parts or gaps): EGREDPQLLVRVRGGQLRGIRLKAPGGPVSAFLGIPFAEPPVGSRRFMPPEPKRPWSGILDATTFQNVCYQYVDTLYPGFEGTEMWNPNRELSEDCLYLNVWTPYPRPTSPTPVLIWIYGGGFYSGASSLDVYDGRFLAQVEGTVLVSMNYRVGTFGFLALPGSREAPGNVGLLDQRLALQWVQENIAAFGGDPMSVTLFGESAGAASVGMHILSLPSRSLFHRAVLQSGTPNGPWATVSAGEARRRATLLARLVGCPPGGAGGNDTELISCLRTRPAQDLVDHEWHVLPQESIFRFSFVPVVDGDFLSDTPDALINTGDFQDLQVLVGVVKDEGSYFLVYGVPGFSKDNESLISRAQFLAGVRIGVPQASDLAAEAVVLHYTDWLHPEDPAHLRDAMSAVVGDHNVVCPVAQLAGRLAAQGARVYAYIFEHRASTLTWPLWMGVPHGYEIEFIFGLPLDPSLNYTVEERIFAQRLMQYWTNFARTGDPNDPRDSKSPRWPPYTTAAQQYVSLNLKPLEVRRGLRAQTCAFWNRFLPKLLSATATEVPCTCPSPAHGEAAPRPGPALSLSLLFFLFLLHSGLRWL

[5] = target: T5, AChE (Rattus norvegicus, UniProt P37136); test: biochemical
T5 construct: 0.1-0.2 ml of enzyme solution (red cell membrane or serum of rat) was added; from tissue; host or cells: rat tissue
T5 sequence (P37136 32-614): T3 sequence (P37136 32-614)
Protocol: as §1

[6] = test system: memory impairment caused by scopolamine; test: 8-arm maze spatial distinction operation of rat, memory impairment caused by scopolamine; assay type: in vivo; conditions: rats, 8-arm maze; scopolamine + huperzine A 0.15 + 0.25 mg/kg ip + po
[7] = Critical toxicity on mice (Bliss method); assay type: in vivo; conditions: mouse, in vivo, po, mice, p.o., Bliss method, mortality within 7 days
Protocol: Test of each pharmaceutical was carried out using 4-5 dosage group.
Mortality within 7 days was observed.

[8] = read-out: concentration for inhibition of 50% of enzyme activity (IC50) acetylcholinesterase (AChE), Table 2, AChE taken from homogenate of rat's cortex
[9] = read-out: concentration for inhibition of 50% of enzyme activity (IC50) acetylcholinesterase (AChE)
[10] = read-out: concentration for inhibition of 50% of enzyme activity (IC50) butyrylcholinesterase (BuChE), Table 1, BuChE taken from rat's serum
[11] = read-out: concentration for inhibition of 50% of enzyme activity (IC50) butyrylcholinesterase (BuChE), Table 2, BuChE taken from rat's serum
[12] = Table 1, AChE taken from rat's red cell membrane
[13] = read-out: inhibition activity AChE IC50
[14] = Table 2, AChE taken from homogenate of rat's cortex
[15] = Table 6, read-out: inhibition activity AChE IC50

COc1cc2c(cc1OC)C(=O)C(CC1CCN(Cc3ccccc3)CC1)C2 (stereo not drawn) [E-2020, reference compound]
inhibition at 10 µM [1]: 2.9%

CNC(=O)Oc1ccc2c(c1)[C@]1(C)CCN(C)[C@@H]1N2C [Physostigmine, reference compound]
IC50 [2]: 1.26 µM

CC=C1C2C=C(C)CC1(NC(=O)CCC(=O)O)c1ccc(=O)[nH]c1C2 (stereo not drawn) [derivative No. 1]
IC50 ratio BuChE/AChE ([3]; Table 2): 1094.1
IC50 [3, 8]: 0.348 µM
IC50 ratio BuChE/AChE [4]: 1092.5
inhibition effect on acetylcholinesterase (in words) [4]: remarkable inhibition effect
inhibition effect on acetylcholinesterase compared with huperzine A [4]: slightly weaker
inhibition effect on acetylcholinesterase compared with physostigmine and galanthamine [4]: apparently stronger
selective inhibition effect on acetylcholinesterase compared with huperzine A [4]: greater selective inhibition effect
IC50 [4, 9]: 0.348 µM
IC50 [2, 10]: 380 µM
IC50 [2, 11]: 380 µM
inhibition effect on butyrylcholinesterase (pseudo enzyme) compared with huperzine A ([2]; see Tables 1, 2 and 6): weaker inhibition effect

CC=C1C2C=C(C)CC1(NC(=O)Cc1ccccc1)c1ccc(=O)[nH]c1C2 (stereo not drawn) [derivative No. 2]
IC50 [4, 12]: 9.05 µM
IC50 [2]: > 347 µM

CC=C1C2C=C(C)CC1(NC(=O)c1cccnc1)c1ccc(=O)[nH]c1C2 (stereo not drawn) [derivative No. 4]
IC50 [4, 12]: > 12.9 µM
IC50 [2]: 58.9 µM

CC=C1C2C=C(C)CC1(NC(=O)c1cccnc1)c1ccc(=O)n(C(=O)c3cccnc3)c1C2 (stereo not drawn) [derivative No. 5]
IC50 [4, 12]: > 11 µM
IC50 [2]: > 275 µM

CC=C1C2C=C(C)CC1(NC(=O)C1=CN(C)CC=C1)c1ccc(=O)[nH]c1C2 (stereo not drawn) [derivative No. 6]
IC50 ([4]; read-out: concentration for inhibition of 50% of enzyme activity (IC50) acetylcholinesterase (AChE), Table 1, AChE taken from rat's red cell membrane): > 12.3 µM
IC50 [2, 10]: > 309 µM

CC=C1C2C=C(C)CC1(NC(=O)C(C)C)c1ccc(=O)[nH]c1C2 (stereo not drawn) [derivative No. 10]
IC50 [4, 9]: > 15.8 µM
IC50 [2, 10]: 110 µM

CC=C1C2C=C(C)CC1(NC(=O)c1ccccc1)c1ccc(=O)[nH]c1C2 (stereo not drawn) [derivative No. 11]
IC50 [4, 9]: > 14.5 µM
IC50 [2, 10]: 363 µM

CC=C1C2C=C(C)CC1(NC(=O)c1ccccn1)c1ccc(=O)[nH]c1C2 (stereo not drawn) [derivative No. 12]
IC50 ratio BuChE/AChE ([3]; Table 2): 1995.2
IC50 [3, 8]: 0.126 µM
IC50 [2, 11]: 251 µM

CC=C1C2C=C(C)CC1(NC(=O)c1ccncc1)c1ccc(=O)[nH]c1C2 (stereo not drawn) [derivative No. 14]
BuChE/AChE [5]: >100
inhibition activity AChE at 1(μM) [5]: 76.4
IC50 [5, 13]: 0.36 µM
inhibition activity BuChE at 10(μM) [1]: 2.5

CC=C1C2C=C(C)CC1(NC(=O)c1ccccc1C(=O)O)c1ccc(=O)[nH]c1C2 (stereo not drawn) [derivative No. 15]
inhibition activity AChE at 1(μM) [5]: 60.8
IC50 ratio BuChE/AChE ([3]; Table 2): 795.6
IC50 [3, 8]: 0.631 µM
IC50 [2, 11]: 502 µM
inhibition activity BuChE at 10(μM) [1]: 0

CC=C1C2C=C(C)CC1(NC(=O)/C=C/CC(=O)O)c1ccc(=O)[nH]c1C2 (stereo not drawn) [derivative No. 16]
BuChE/AChE [5]: >200
inhibition activity AChE at 1(μM) [5]: 80.7
IC50 [5, 13]: 0.21 µM
inhibition activity BuChE at 10(μM) [1]: 1.8

CC=C1C2C=C(C)CC1(N=Cc1ccccc1O)c1ccc(=O)[nH]c1C2 (stereo not drawn) [derivative No. 20]
IC50 [5]: 0.094 µM
BuChE/AChE ([5]; Table 6): >500
inhibition at 1 µM ([5]; Table 6): 83.7%
IC50 [3, 14]: 0.178 µM
IC50 ratio BuChE/AChE ([3]; Table 2): 708.1
IC50 [2]: 126 µM
inhibition at 10 µM [1]: 0%

CC=C1C2C=C(C)CC1(N=Cc1cc(OC)c(OC)c(OC)c1)c1ccc(=O)[nH]c1C2 (stereo not drawn) [derivative No. 21]
inhibition at 1 µM ([5]; Table 6): 84.9%
IC50 [3, 14]: 0.141 µM
IC50 [2]: 158 µM
inhibition at 10 µM [1]: 0%

CC=C1C2C=C(C)CC1(N=Cc1ccc(OC)c(OC)c1O)c1ccc(=O)[nH]c1C2 (stereo not drawn) [derivative No. 22]
inhibition at 1 µM ([5]; Table 6): 68.7%
IC50 [3, 14]: 0.126 µM
IC50 ratio BuChE/AChE ([3]; Table 2): 1000.0
IC50 [2]: 126 µM
inhibition at 10 µM [1]: 0%

CC=C1C2C=C(C)CC1(N=Cc1ccc(O)cc1O)c1ccc(=O)[nH]c1C2 (stereo not drawn) [derivative No. 23]
inhibition at 1 µM ([5]; Table 6): 34.4%
IC50 [3, 14]: 0.251 µM
IC50 ratio BuChE/AChE ([3]; Table 2): 794.2
IC50 [2]: 200 µM
inhibition at 10 µM [1]: 0%

CC=C1C2C=C(C)CC1(N=Cc1cccc(O)c1O)c1ccc(=O)[nH]c1C2 (stereo not drawn) [derivative No. 24]
inhibition at 1 µM ([5]; Table 6): 78.3%
IC50 [5, 15]: 0.28 µM
IC50 [3, 14]: 0.1 µM
inhibition at 10 µM [1]: 0%

CC=C1C2C=C(C)CC1(N=Cc1ccc(O)c(O)c1O)c1ccc(=O)[nH]c1C2 (stereo not drawn) [derivative No. 25]
inhibition at 1 µM ([5]; Table 6): 62%
IC50 [3, 14]: 0.159 µM
IC50 ratio BuChE/AChE ([3]; Table 2): 1584.9
IC50 [2]: 251 µM
inhibition at 10 µM [1]: 0%

CC=C1C2C=C(C)CC1(N=Cc1cccc(OC)c1O)c1ccc(=O)[nH]c1C2 (stereo not drawn) [derivative No. 26]
BuChE/AChE ([5]; Table 6): >300
inhibition at 1 µM ([5]; Table 6): 79.7%
IC50 [5, 15]: 0.18 µM
inhibition at 10 µM [1]: 1.1%

CC=C1C2C=C(C)CC1(N=CC=Cc1ccccc1)c1ccc(=O)[nH]c1C2 (stereo not drawn) [derivative No. 27]
BuChE/AChE ([5]; Table 6): >500
inhibition at 1 µM ([5]; Table 6): 84%
IC50 [5, 15]: 0.11 µM
IC50 [3]: 0.126 µM
IC50 ratio BuChE/AChE ([3]; Table 2): 794.3
IC50 [2]: 100 µM
inhibition at 10 µM [1]: 3.3%

CC=C1C2C=C(C)CC1(N=Cc1cccnc1)c1ccc(=O)[nH]c1C2 (stereo not drawn) [derivative No. 44]
BuChE/AChE ([5]; Table 6): >500
inhibition at 1 µM ([5]; Table 6): 85.6%
IC50 [5, 15]: 0.11 µM
inhibition at 10 µM [1]: 1.8%

C/C=C1\C2C=C(C)C[C@]1(N)c1ccc(=O)[nH]c1C2 [huperzine A, (5R, 9R, 11E)-5-amino-11-ethylidene-5,6,9,10-tetrahydro-7-methyl-5,9-methylene cycloocta [b] pyridyl-2(1H)-one, reference compound]
No. of mistakes in operation before reaching the standard, reference memory (X + SEM) [6]: 0.57
No. of mistakes in operation before reaching the standard, working memory (X + SEM) [6]: 0.86
LD50 at 7 days ([7]; first of two columns headed LD50, read-out: LD50 (first column) (95% confidence limit)): 3.1 mg/kg
LD50 at 7 days ([7]; second of two columns headed LD50, read-out: LD50 (second column) (95% confidence limit)): 4.6 mg/kg
